The source of these data is PubChem BioAssay (NCI).

Common to all, as to assay: growth of human tumour cells (NCI), 48 h
In experiment [1] the test system is ACHN renal.
The subject of experiment [2] is HCC-2998 colon.
For experiment [3], the system named is NCI-H226 lung.
The subject of experiment [4] is OVCAR-4 ovarian.
Experiment [5] relates to OVCAR-8 ovarian.
Experiment [6] concerns SF-295 CNS.
Experiment [7] has as its system SF-539 CNS.
Experiment [8] deals with SK-MEL-5 melanoma.
Experiment [9] concerns SW-620 colon.
For experiment [10], the system named is TK-10 renal.

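Briefly, cells in 96-well plates were exposed to five compound concentrations for 48 h, and endpoints were estimated by linear interpolation. Abbreviation: GI50, concentration required for 50% inhibition of growth. Definition used: TGI = concentration required for complete inhibition of growth.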

Regarding `O=C(/C=C/c1ccc(Cl)cc1Cl)c1ccc(Cl)cc1Cl`, the GI50 in experiment [1] was 22100 nM; in experiment [2] it was 23700 nM; in experiment [3], 19.9 µM; in [4], 26600 nM; in experiment [5], 16600 nM; in [6], 18700 nM. Besides, the GI50 was 20700 nM in [7], 16.7 µM in experiment [8], 9220 nM in experiment [9] and 28 µM in experiment [10]. In addition, the TGI in experiment [1] is 47.9 µM; in experiment [2], more than 70.5 µM; in experiment [3], 40.8 µM; in experiment [4], 88.5 µM; in experiment [5], 39.6 µM; in [6], 47.7 µM. Besides, the TGI in experiment [7] is more than 54.9 µM; in experiment [8], 36.4 µM; in [9] it was 47.3 µM; in experiment [10], more than 73.2 µM.
In the case of `CS(=O)(=O)CCNCc1ccoc1-c1ccc2ncnc(Nc3ccc(OCc4ccccc4)cc3)c2c1`, the GI50 in [1] is more than 25000 nM; in [2], more than 25000 nM; in [3], more than 25 µM; in experiment [4] it was more than 25000 nM; in experiment [5], more than 25000 nM; in experiment [6], more than 25000 nM. Further, the GI50 was more than 25000 nM in [7], 9.74 µM in [8], more than 25000 nM in [9] and 1.38 µM in experiment [10]. The TGI in experiment [1], in experiment [2], in experiment [3], in [4], in experiment [5] and in experiment [6] was more than 25 µM each time. The TGI in experiment [7], in experiment [8], in [9] and in experiment [10] was more than 25 µM in each case.
For the compound `C[C@H]1CC[C@@H]2[C@@H](C)[C@H]3[C@H](C[C@H]4[C@@H]5CC=C6C[C@@H](O)CC[C@]6(C)[C@H]5CC[C@]34C)N2C1`, the TGI in experiment [1], in experiment [2], in [3], in experiment [4], in experiment [5] and in experiment [6] was more than 100 µM throughout. For the same compound, the TGI in [7], in [8], in experiment [9] and in experiment [10] was more than 100 µM throughout.
Consider `COC(=O)[C@@H](C)C[C@H](Cc1ccccc1)NC(=O)c1csc([C@@H](C[C@H](C(C)C)N(C)C(=O)[C@@H](NC(=O)[C@H]2CCCCN2C)C(C(F)(F)F)C(F)(F)F)OC(C)=O)n1`, for which the GI50 in experiment [1] is 111 nM; in experiment [2], 74.7 nM; in [3], 3.94 µM; in [4] it was 309 nM; in experiment [5], 92.7 nM; in [6], 36.8 nM. Further, the GI50 in experiment [7] was 39.7 nM; in experiment [8], 0.0275 µM; in experiment [9] it was 67.3 nM; in experiment [10], 4.6 µM. Besides, the TGI in experiment [1], in [2], in experiment [3], in experiment [4], in [5] and in [6] was more than 16.7 µM throughout. The TGI is 0.154 µM in experiment [7], 1.81 µM in experiment [8], more than 16.7 µM in experiment [9] and more than 16.7 µM in experiment [10].
For the compound `O=S(=O)(Nc1ccc(Cl)c(Cl)c1)c1ccc(-c2cnc(C3CC3)o2)cc1`, the GI50 was 606 nM in experiment [1]; 1810 nM in experiment [2]; 1.82 µM in experiment [3]; 1160 nM in experiment [4]; 1230 nM in experiment [5]; 337 nM in experiment [6]. The GI50 in experiment [7] was 399 nM; in experiment [8], 0.478 µM; in experiment [9], 336 nM; in [10], 10.3 µM. Moreover, the TGI in experiment [1] turned out to be 30.7 µM; in experiment [2], 10.3 µM; in experiment [3] it was 19.5 µM; in [4], 20.6 µM; in experiment [5] it was 20.1 µM; in [6], 11.4 µM. Moreover, the TGI is 3.64 µM in experiment [7], 14.6 µM in experiment [8], 15.3 µM in experiment [9] and 36.1 µM in experiment [10].
As for `CC/C(C)=C1\CCC(CN(C)C)C1=O` (stereo not given), the TGI in [1] was 33.2 µM; in experiment [2] it was 39.9 µM; in experiment [3], more than 100 µM; in experiment [4], 32 µM; in experiment [5], 76.1 µM; in experiment [6], more than 100 µM. The TGI in experiment [7] was 32.7 µM; in experiment [8], 91.5 µM; in [9] it was 53.4 µM; in [10] it was 31.1 µM.
